The term inhibition denotes how much of the control response was suppressed. A lower inhibition goes with a response near the control.

This test can be described thus: HCV replicon assay (luciferase reporter, ET cell line). It is filed as cell-based. The conditions noted are these: Hepatitis C virus, HCV replicon luciferase activity in ET cells. Here is the method: A cell line, ET (Huh-lucubineo-ET) is used for screening of compounds for inhibiting HCV RNA dependent RNA polymerase. The ET cell line is stably transfected with RNA transcripts harboring a I389 luc-ubi-neo/NS3-3′/ET; replicon with firefly luciferase-ubiquitin-neomycin phosphotransferase fusion protein and EMCV-IRES driven NS3-5B polyprotein containing the cell culture adaptive mutations (E1202G; T1280I; K1846T) (Krieger at al, 2001 and unpublished). The ET cells are grown in DMEM (Dulbeco's Modified Eagle's Medium), supplemented with 10% fetal calf serum, 2 mM Glutamine, Penicillin (100 IU/mL)/Streptomycin (100 μg/mL), 1× nonessential amino acids, and 250 μg/mL G418 (“Geneticin”). They are all available through Life Technologies (Bethesda, Md.). The cells are plated at 0.5−1.0×10^4 cells/well in the 96 well plates and incubated for 24 hrs before adding test compound. The compounds are added to the cells to achieve a final concentration of 0.1 nM to 50 μm and a final DMSO (dimethylsulfoxide) concentration of 0.5%. Luciferase activity is measured 48-72 hours later by adding a lysis buffer and the substrate (Catalog number Glo-lysis buffer E2661 and Bright-Glo luciferase system E2620 Promega, Madison, Wis.). Cells should not be too confluent during the assay. Percent inhibition of replication data is plotted relative to no compound control. Under the same condition, cytotoxicity of the compounds are determined using cell proliferation reagent, WST-1 (Roche, Germany). The compounds showing antiviral activities, but no significant cytotoxicities are chosen to determine EC50 and TC50. For these determinations, a 10 point, 2-fold serial dilution for each compound was used, which spans a concentration range of 1000 fold. EC50 and similarly TC50 values were calculated by fitting % inhibition at each concentration to the following equation:
% inhibition=100%/[(EC50/[I])^b+1]
where b is Hill's coefficient.
% inhibition values at a specific concentration, […] for example, can also be derived from the equation above.
(A replicon is a self-replicating genome or part of one, used to study replication in cells.)
Molecule `O=C(NCc1cccs1)c1nn2c(I)cc(-c3ccccc3)cc2c1Cl` [Compound 121, 3-Chloro-7-iodo-5-phenyl-pyrazolo[1,5-a]pyridine-2-carboxylic Acid (thiophen-2-ylmethyl)-amide] returned an inhibition at 10 µM of 73.9%.

With `O=C(NCc1cccs1)c1nc2c(C(F)(F)F)cc(-c3ccc(F)c(F)c3)cn2c1Cl` [Compound 198, 3-Chloro-6-(3,4-difluoro-phenyl)-8-trifluoromethyl-imidazo[1,2-a]pyridine-2-carboxylic acid (thiophen-2-ylmethyl)-amide], the inhibition at 10 µM was 83.2%. The molecule `O=C(NCc1cccs1)c1nc2c(C(F)(F)F)cc(-c3cnn(Cc4ccccc4)c3)cn2c1Cl` [Compound 285, 6-(1-Benzyl-1H-pyrazol-4-yl)-3-chloro-8-trifluoromethyl-imidazo[1,2-a]pyridine-2-carboxylic Acid (thiophen-2-ylmethyl)-amide] returned an inhibition at 10 µM of 71.8%. To `O=C(NCc1cccc(F)c1)c1nc2c(C(F)(F)F)cc(-c3ccoc3)cn2c1Cl` [Compound 403] belongs 88.9%; to `O=C(NCc1cccs1)c1nc2c(C(F)(F)F)cc(-c3cccc(F)c3)cn2c1Br` [Compound 367, 3-bromo-6-(3-fluoro-phenyl)-8-trifluoromethyl-imidazo[1,2-a]pyridine-2-carboxylic acid (thiophen-2-ylmethyl)-amide], 96.2%; to `O=C(NCc1cccs1)c1nc2c(C(F)(F)F)cc(-c3ccsc3)cn2c1-c1ccsc1` [Compound 200, 3,6-Di-thiophen-3-yl-8-trifluoromethyl-imidazo[1,2-a]pyridine-2-carboxylic acid (thiophen-2-ylmethyl)-amide], 91.6%. Molecule `O=C(c1nc2c(C(F)(F)F)cc(-c3ccoc3)cn2c1Cl)N1CC(NS(=O)(=O)c2cccc(F)c2)C1` [Compound 495, N-[1-(3-Chloro-6-furan-3-yl-8-trifluoromethyl-imidazo[1,2-a]pyridine-2-carbonyl)-azetidin-3-yl]-3-fluoro-benzenesulfonamide] displayed an inhibition at 10 µM of 94.2%. `O=C(NC1CN(S(=O)(=O)c2ccccc2)C1)c1nc2c(C(F)(F)F)cc(-c3ccoc3)cn2c1Cl` [Compound 511, 3-Chloro-6-furan-3-yl-8-trifluoromethyl-imidazo[1,2-a]pyridine-2-carboxylic Acid (1-benzenesulfonyl-azetidin-3-yl)-amide]: 10 µM produced 98.6% inhibition.

In the case of `N#Cc1cccc(C2CCN(C(=O)c3nc4c(C(F)(F)F)cc(-c5ccoc5)cn4c3Cl)C2)c1` (stereo not drawn) [Compound 450, 3-(1-(3-Chloro-6-furan-3-yl-8-trifluoromethyl-imidazo[1,2-a]pyridine-2-carbonyl)-pyrrolidin-3-yl)-benzonitrile], the inhibition at 10 µM turned out to be 82.5%.

`Cn1nccc1C1=CCN(C(=O)c2nc3c(C(F)(F)F)cc(-c4ccoc4)cn3c2Cl)CC1` [Compound 586, (3-Chloro-6-furan-3-yl-8-trifluoromethyl-imidazo[1,2-a]pyridine-2-yl)-[4-(2-methyl-2H-pyrazol-3-yl)-3,6-dihydro-2H-pyridin-1-yl]-methanone] came in with an inhibition at 10 µM of 86%. As for `O=C(c1nc2c(C(F)(F)F)cc(-c3ccoc3)cn2c1Cl)N1CC=C(c2nccs2)C1` [Compound 428, (3-Chloro-6-furan-3-yl-8-trifluoromethyl-imidazo[1,2-a]pyridin-2-yl)-(3-thiazol-2-yl-2,5-dihydro-pyrrol-1-yl)-methanone], the inhibition at 10 µM came to 99.9%. Regarding `CN(C)Cc1cccc(-c2cc(C(F)(F)F)c3nc(C(=O)N4CCC(c5ccc(F)cc5)C4)c(Cl)n3c2)c1` (stereo not drawn) [Compound 354, [3-Chloro-6-(3-dimethylaminomethyl-phenyl)-8-trifluoromethyl-imidazo[1,2-a]pyridin-2-yl]-[3-(4-fluoro-phenyl)-pyrrolidin-1-yl]-methanone], at 10 µM the inhibition was 97.8%.

These data come from patent US20120121540A1 (priority 2007, published 2012).
